Test results from patent US10508092B2, “Synthesis of novel analogs of diptoindonesin G, compounds formed thereby, and pharmaceutical compositions containing them” (Wisconsin Alumni Research Foundation, priority 2016, dated 2019).
“And” between values parts separate entries of the source, which are not always exact repeats. Equal values may be shown once.

Legend:
[1] = patients, high dose administration of fulvestrant (500 mg); cited from earlier work
[2] = test system: estrogen receptor β (ERβ); experiment: Western blot of FLAG-ERβ levels in Hs578T-ERβLuc Dox-inducible cells; type: cell-based, human; settings: Hs578T-ERβLuc Dox-inducible line, 10 μM, 5 days, Western blot (anti-FLAG)
Description: FIGS. 2A, 2B, and 2C together depict the biological activity of the subject compounds on estrogen receptor β (ERβ) levels in human breast cancer cells.
The biological activity of these four analogs were then compared with the parent compound Dip G following our previous protocol (Zhao et al., supra). See FIGS. 1A, 1B, 1C, 2A, 2B, and 2C. Cells were treated with each compound at 10 μM concentration in order to evaluate how well each modified the stability of ERα and ERβ.
MCF7 cells were treated with Dip G and analogs for 24 hours before harvesting. Hs578T-tet-on-ERβ cells (ATCC HTB-126; American Type Culture Collection, Manassas, Va.) were treated with doxycycline for 24 hours to induce ERβ expression. Then the cells were treated with compounds for 5 days before harvesting. 15 μg of total cell lysates were resolved on SDS-PAGE and Western blot analyses were performed as previously described using ERα antibody (HC-20, Santa Cruz Biotechnology, Inc., Dallas, Tex.) and anti-FLAG antibody (F7425, Sigma-Aldrich Co., LLC, St. Louis, Mo.) for ERβ.^3

| melting point [°C] | Structure (SMILES) | peak plasma concentration [1] | ERβ stability [2] |
| --- | --- | --- | --- |
|  | C[C@]12CC[C@@H]3c4ccc(O)cc4C[C@@H](CCCCCCCCC[S+]([O-])CCCC(F)(F)C(F)(F)F)[C@H]3[C@@H]1CC[C@@H]2O (stereo partly drawn) [fulvestrant] | ~20 ng/ml and ~30 nM |  |
| > 260 | O=C1c2c(O)cc(O)cc2-c2c(-c3ccccc3)oc3cc(O)cc1c23 [Compound 14] |  | moderately stabilized |
